In the supplement of paper PMC10307832:

Legend:
Test in all cases: relative viability (nuclei count vs DMSO), 5 days (fraction); higher = more cells survive
[1] = compound: Cn1cncc1[C@@](N)(c1ccc(Cl)cc1)c1ccc2c(c1)c(-c1cccc(Cl)c1)cc(=O)n2C [Tipifarnib] + CC(=O)c1c(C)c2cnc(Nc3ccc(N4CCNCC4)cn3)nc2n(C2CCCC2)c1=O [Palbociclib] (partner 0.5 µM)
Outline: (§1)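 The day after seeding in 1536-well plates, lung cancer cell lines were treated by pin tool with a single drug, or with a fixed anchor-drug dose together with five library-drug doses (not always all listed) in √10 steps. After 5 days, a combined fix-and-stain solution (final 0.05% Triton X-100, 1% formaldehyde, 1 ug/ml Hoechst) was added. Nuclei counted on 4× images gave relative viability as treated counts over vehicle counts, reported as the median of duplicate plates.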

[2] = compound: Cn1cncc1[C@@](N)(c1ccc(Cl)cc1)c1ccc2c(c1)c(-c1cccc(Cl)c1)cc(=O)n2C [Tipifarnib] + Cc1nc(Nc2ncc(C(=O)Nc3c(C)cccc3Cl)s2)cc(N2CCN(CCO)CC2)n1 [Dasatinib] (partner 0.075 µM)
Outline: as §1

[3] = compound: Cn1cncc1[C@@](N)(c1ccc(Cl)cc1)c1ccc2c(c1)c(-c1cccc(Cl)c1)cc(=O)n2C [Tipifarnib] + Cc1nc(NC(=O)N2CCC[C@H]2C(N)=O)sc1-c1ccnc(C(C)(C)C(F)(F)F)c1 [Alpelisib] (partner 2 µM)
Outline: as §1

[4] = compound: Cn1cncc1[C@@](N)(c1ccc(Cl)cc1)c1ccc2c(c1)c(-c1cccc(Cl)c1)cc(=O)n2C [Tipifarnib] + CC(C)C[C@H](NC(=O)[C@H](Cc1ccccc1)NC(=O)c1cnccn1)B(O)O [Bortezomib] (partner 0.002 µM)
Outline: as §1

Row | Cell Line | relative viability ([1]; first compound 0.01 µM) | relative viability ([1]; first compound 0.03162 µM) | relative viability ([1]; first compound 0.1 µM) | relative viability ([1]; first compound 0.3162 µM) | relative viability ([1]; first compound 1 µM) | relative viability ([2]; first compound 0.01 µM) | relative viability ([2]; first compound 0.03162 µM) | relative viability ([2]; first compound 0.1 µM) | relative viability ([2]; first compound 0.3162 µM) | relative viability ([2]; first compound 1 µM) | relative viability ([3]; first compound 0.01 µM) | relative viability ([3]; first compound 0.03162 µM) | relative viability ([3]; first compound 0.1 µM) | relative viability ([3]; first compound 0.3162 µM) | relative viability ([3]; first compound 1 µM) | relative viability ([4]; first compound 0.01 µM) | relative viability ([4]; first compound 0.03162 µM) | relative viability ([4]; first compound 0.1 µM) | relative viability ([4]; first compound 0.3162 µM) | relative viability ([4]; first compound 1 µM)
1 | SW 1573 | 0.427 | 0.239 | 0.211 | 0.183 | 0.186 | 0.379 | 0.33 | 0.297 | 0.217 | 0.198 | 0.667 | 0.718 | 0.449 | 0.44 | 0.331 | 1.13 | 0.752 | 0.691 | 0.45 | 0.49
2 | PC-14 | 0.42 | 0.346 | 0.226 | 0.15 | 0.163 | 0.261 | 0.206 | 0.191 | 0.128 | 0.093 | 0.99 | 0.774 | 0.653 | 0.392 | 0.451 | 1 | 0.873 | 0.555 | 0.453 | 0.464
3 | COR-L23 | 0.302 | 0.222 | 0.198 | 0.153 | 0.173 | 0.59 | 0.406 | 0.365 | 0.264 | 0.2 | 0.808 | 0.525 | 0.431 | 0.373 | 0.338 | 0.914 | 0.647 | 0.708 | 0.501 | 0.486
4 | HCC-78 | 0.478 | 0.54 | 0.558 | 0.454 | 0.456 | 0.327 | 0.428 | 0.273 | 0.371 | 0.266 | 0.41 | 0.314 | 0.317 | 0.271 | 0.292 | 0.606 | 0.45 | 0.46 | 0.469 | 0.462
5 | NCI-H2405 | 0.562 | 0.517 | 0.525 | 0.492 | 0.517 | 0.188 | 0.208 | 0.219 | 0.228 | 0.217 | 0.863 | 0.832 | 0.7 | 0.718 | 0.72 | 0.983 | 0.909 | 0.985 | 0.923 | 0.61
6 | SK-LU-1 | 0.398 | 0.353 | 0.393 | 0.357 | 0.335 | 0.16 | 0.152 | 0.156 | 0.14 | 0.133 | 1.06 | 0.655 | 0.528 | 0.49 | 0.516 | 1.12 | 0.508 | 0.626 | 0.614 | 0.36
7 | EMC-BAC-2 | 0.501 | 0.469 | 0.494 | 0.463 | 0.465 | 0.324 | 0.336 | 0.319 | 0.305 | 0.258 | 0.741 | 0.665 | 0.684 | 0.651 | 0.566 | 1.03 | 1 | 0.937 | 0.924 | 0.749
8 | LCLC-97TM1 | 0.222 | 0.154 | 0.202 | 0.202 | 0.236 | 0.833 | 0.704 | 0.745 | 0.64 | 0.383 | 0.218 | 0.181 | 0.2 | 0.17 | 0.173 | 0.317 | 0.582 | 0.404 | 0.33 | 0.117
9 | H3255 | 0.331 | 0.276 | 0.27 | 0.287 | 0.258 | 0.3 | 0.375 | 0.421 | 0.463 | 0.344 | 0.759 | 0.734 | 0.627 | 0.482 | 0.497 | 0.622 | 0.647 | 0.554 | 0.561 | 0.344
10 | LXF-289 | 0.615 | 0.586 | 0.591 | 0.549 | 0.565 | 0.218 | 0.237 | 0.249 | 0.217 | 0.0926 | 1.05 | 1.05 | 0.988 | 0.889 | 0.983 | 0.978 | 0.889 | 0.948 | 0.874 | 0.706
11 | UMC-11 | 0.342 | 0.306 | 0.295 | 0.273 | 0.262 | 0.419 | 0.441 | 0.422 | 0.357 | 0.29 | 0.939 | 0.691 | 0.504 | 0.409 | 0.487 | 0.667 | 0.498 | 0.465 | 0.447 | 0.242
12 | LC-2-ad | 0.464 | 0.439 | 0.442 | 0.336 | 0.38 | 0.54 | 0.545 | 0.496 | 0.277 | 0.336 | 0.829 | 0.54 | 0.375 | 0.411 | 0.321 | 0.984 | 0.486 | 0.491 | 0.443 | 0.185
13 | A-427 | 0.527 | 0.535 | 0.477 | 0.448 | 0.466 | 0.753 | 0.719 | 0.598 | 0.494 | 0.326 | 1.21 | 1.1 | 1.06 | 1.02 | 0.952 | 0.987 | 0.941 | 0.964 | 0.856 | 0.634
14 | NCI-H322M | 0.521 | 0.548 | 0.515 | 0.459 | 0.508 | 0.236 | 0.27 | 0.259 | 0.246 | 0.285 | 0.765 | 0.816 | 0.767 | 0.741 | 0.658 | 1.27 | 1.32 | 1.18 | 1.05 | 0.947
15 | HCC-366 | 0.259 | 0.346 | 0.199 | 0.179 | 0.101 | 0.78 | 0.65 | 0.353 | 0.331 | 0.046 | 0.559 | 0.47 | 0.272 | 0.159 | 0.0543 | 1.09 | 0.887 | 0.483 | 0.315 | 0.07
16 | NCI-H1975 | 0.615 | 0.536 | 0.524 | 0.39 | 0.35 | 0.383 | 0.356 | 0.412 | 0.238 | 0.185 | 0.713 | 0.599 | 0.468 | 0.329 | 0.351 | 0.49 | 0.283 | 0.311 | 0.214 | 0.2
